Columns and labels:
[1] = target: Spindlin-1 (Homo sapiens, UniProt Q9Y657); assay: Displacement of trimethylated biotinylated histone H3 peptide from recombinant human His-tagged SPIN1 (26 to 262 residues) expressed in Escherichia coli BL21 (DE3) incubated for 30 mins followed by peptide addition and measured after 1 hr by Alphascreen method
[2] = target: T1, Histone-lysine N-methyltransferase EHMT2 (Homo sapiens, UniProt Q96KQ7); assay: Inhibition of G9a (unknown origin) by scintillation proximity Assay
T1 sequence (Q96KQ7 whole entry): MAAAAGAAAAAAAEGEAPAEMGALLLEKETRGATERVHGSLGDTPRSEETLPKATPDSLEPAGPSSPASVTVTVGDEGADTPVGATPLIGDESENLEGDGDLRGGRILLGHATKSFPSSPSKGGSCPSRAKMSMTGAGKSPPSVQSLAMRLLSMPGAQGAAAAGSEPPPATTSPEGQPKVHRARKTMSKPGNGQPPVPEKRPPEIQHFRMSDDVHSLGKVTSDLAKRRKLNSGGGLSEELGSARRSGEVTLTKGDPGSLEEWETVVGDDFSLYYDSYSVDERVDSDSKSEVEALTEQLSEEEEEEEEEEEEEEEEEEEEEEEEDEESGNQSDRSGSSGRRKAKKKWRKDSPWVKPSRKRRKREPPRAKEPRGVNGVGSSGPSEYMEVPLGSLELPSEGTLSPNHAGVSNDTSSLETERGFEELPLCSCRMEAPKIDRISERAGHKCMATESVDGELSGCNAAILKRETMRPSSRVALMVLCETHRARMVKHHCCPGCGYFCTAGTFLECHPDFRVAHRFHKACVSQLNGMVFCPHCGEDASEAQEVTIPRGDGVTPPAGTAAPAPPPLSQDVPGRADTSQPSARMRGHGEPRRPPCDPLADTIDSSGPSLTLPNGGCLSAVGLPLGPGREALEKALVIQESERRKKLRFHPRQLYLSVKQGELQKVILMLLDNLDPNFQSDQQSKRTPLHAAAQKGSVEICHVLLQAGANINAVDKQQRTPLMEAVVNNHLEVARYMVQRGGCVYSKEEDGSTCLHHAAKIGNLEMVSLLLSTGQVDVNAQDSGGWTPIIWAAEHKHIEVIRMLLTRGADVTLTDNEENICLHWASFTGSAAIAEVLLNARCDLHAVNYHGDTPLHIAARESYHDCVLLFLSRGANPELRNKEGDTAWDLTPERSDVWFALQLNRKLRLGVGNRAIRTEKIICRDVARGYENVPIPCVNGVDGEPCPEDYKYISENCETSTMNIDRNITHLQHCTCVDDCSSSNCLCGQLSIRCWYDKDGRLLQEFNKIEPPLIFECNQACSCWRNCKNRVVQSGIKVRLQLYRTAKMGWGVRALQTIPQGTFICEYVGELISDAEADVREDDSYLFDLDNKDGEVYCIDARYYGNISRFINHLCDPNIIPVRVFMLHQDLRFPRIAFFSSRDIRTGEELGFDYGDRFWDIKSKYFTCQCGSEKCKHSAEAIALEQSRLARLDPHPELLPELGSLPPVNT

[3] = system: U2OS; assay: Cytotoxicity against human U2OS cells assessed as reduction in cell viability at >3 uM incubated for 2 days by propidium iodide staining based assay; conditions: 48 h
[4] = Apparent permeability from apical side to basolateral side in human Caco2 cells; assay type: ADME, cell-based; conditions: Caco-2
[5] = Apparent permeability from basolateral side to apical side in human Caco2 cells; assay type: ADME, cell-based; conditions: Caco-2
[6] = Stability in human liver microsomes assessed as intrinsic clearance; assay type: ADME, Microsome; conditions: read-out: CLH
[7] = Stability in moue liver microsomes assessed as intrinsic clearance; assay type: ADME, Microsome; conditions: mouse, read-out: CLH
[8] = Stability in human liver microsomes assessed as half life; assay type: ADME, Microsome
[9] = Stability in mouse liver microsomes assessed as half life; assay type: ADME, Microsome
[10] = Solubility of compound at >100 uM; assay type: physicochemical

Chain of Spindlin-1 (Q9Y657 whole entry, the tested form may be a part): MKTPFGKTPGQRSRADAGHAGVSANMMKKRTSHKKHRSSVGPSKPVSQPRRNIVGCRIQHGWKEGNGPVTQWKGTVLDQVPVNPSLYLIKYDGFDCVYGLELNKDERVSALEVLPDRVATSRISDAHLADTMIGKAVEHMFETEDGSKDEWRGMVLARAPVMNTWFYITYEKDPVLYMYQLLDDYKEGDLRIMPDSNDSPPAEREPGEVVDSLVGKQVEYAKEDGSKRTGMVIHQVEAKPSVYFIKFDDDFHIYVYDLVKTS

Structure (SMILES): COc1cc2c(cc1OCCCN1Cc3ccccc3C1)N=C(N)C21CCCC1
- IC50 [1]: 660 nM
- IC50 ([2]; read-out: IC50): 10000 nM

Structure (SMILES): CC(C)Oc1cc2c(cc1OCCCN1CCCC1)N=C(N)C21CCCC1
- IC50 [1]: 8910 nM
- IC50 ([2]; read-out: IC50): 900 nM

Structure (SMILES): COc1ccc2c(c1)CN(CCCOc1cc3c(cc1OCC1CC1)C1(CCCC1)C(N)=N3)C2
- IC50 [1]: 340 nM

Structure (SMILES): NC1=Nc2cc(OCCCN3Cc4ccccc4C3)c(OCC3CC3)cc2C12CCCC2
- IC50 [2]: Not Active
- Activity [3]: Toxic

Structure (SMILES): CC1(C)C(N)=Nc2cc(OCCCN3Cc4ccccc4C3)c(OCC3CC3)cc21
- IC50 [2]: Not Active
- Activity [3]: Toxic

Structure (SMILES): COc1ccc2c(c1)CN(CCCOc1cc3c(cc1OC)C1(CCCC1)C(N)=N3)C2
- IC50 [1]: 600 nM

Structure (SMILES): NC1=Nc2cc(OCCCCN3Cc4ccccc4C3)c(OCC3CC3)cc2C12CCCC2
- IC50 [1]: 6220 nM
- IC50 [2]: Not Active
- Activity [3]: Toxic

Structure (SMILES): CCOc1cc2c(cc1OCCCN1CCCC1)N=C(N)C21CCCC1
- IC50 ([2]; read-out: IC50): 120 nM

Structure (SMILES): CC1(C)C(N)=Nc2cc(OCCCCN3Cc4ccc(OCc5cn(CC(=O)N6CCC(CCN7CCCC7)CC6)nn5)cc4C3)c(OCC3CC3)cc21
- Activity [3]: Non-Toxic

Structure (SMILES): CC1(C)C(N)=Nc2cc(OCCCN3Cc4ccc(OCCc5cn(CC(=O)N6CCC(CCN7CCCC7)CC6)nn5)cc4C3)c(OCC3CC3)cc21
- Papp A→B [4]: 6.59 ×10⁻⁶ cm/s
- Activity [3]: Non-Toxic
- Papp B→A [5]: 6.07 ×10⁻⁶ cm/s
- microsomal CLint [6]: 20.3 µL/min/mg
- microsomal CLint [7]: 37.4 µL/min/mg
- half-life [8]: 68.4 min
- half-life [9]: 37.1 min
- solubility [10]: Soluble

Structure (SMILES): NC1=Nc2cc(OCCCN3CCCC3)c(OCC3CC3)cc2C12CCCC2
- IC50 [1]: 1120 nM
- IC50 ([2]; read-out: IC50): 3100 nM

Structure (SMILES): COc1cc2c(cc1OCCCN1CCCC1)N=C(N)C21CCCC1
- IC50 ([2]; read-out: IC50): 6 nM

Structure (SMILES): COc1cc2c(cc1OCCCN1Cc3cccc(OC)c3C1)N=C(N)C21CCCC1
- IC50 [1]: 6650 nM

Structure (SMILES): CC1(C)C(N)=Nc2cc(OCCCCN3Cc4ccccc4C3)c(OCC3CC3)cc21
- IC50 [1]: 6920 nM
- IC50 [2]: Not Active
- Activity [3]: Toxic

Source: ChEMBL document CHEMBL4321817, “A Chemical Probe for Tudor Domain Protein Spindlin1 to Investigate Chromatin Function” (J Med Chem, 2019)
